The target in series [1] is T1, GT198 (Homo sapiens, UniProt Q9P2W1).
T1 sequence (Q9P2W1 1-180): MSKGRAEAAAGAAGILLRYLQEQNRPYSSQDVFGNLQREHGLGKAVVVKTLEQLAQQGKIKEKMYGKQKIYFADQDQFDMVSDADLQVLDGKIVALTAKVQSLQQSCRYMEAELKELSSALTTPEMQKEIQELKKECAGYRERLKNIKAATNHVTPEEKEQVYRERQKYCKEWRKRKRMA
Put plainly: In vitro DNA-binding assay of GT198 (biotinylated DNA, chemiluminescence). On the set-up: Efficacy: dose or concentration left out as unconfirmed. The note with it: for Efficacy: percent of inhibition of drugs; for inhibition at 2 µM: read-out: Efficacy; for Activity: NCI Approved Oncology Drug Set VII.
Method: (§1) In order to measure GT198 activity in vitro for direct inhibition, a DNA-binding assay was developed in which recombinant GT198 proteins are coated on 96-well plates and assayed for the binding of biotin-labeled DNA in the presence of drug inhibitors. […] N-terminal His-tagged recombinant human GT198 protein without its C-terminus (aa 1–180) were expressed in E. coli BL21 (DE3) pLysS and purified through Ni-NTA-agarose (Qiagen) as previously described [33]. Proteins were eluted by 200 mM imidazole, desalted, concentrated using Amicon YM-10 spin columns, and stored at −80°C before use. Protein concentrations were determined using protein assay dye reagent concentrate solution (Bio-Rad) and 2 mg/ml bovine serum albumin (BSA) standard (Sigma).
(§2) A single-stranded 25-mer biotin-oligonucleotide (Biotin)-[sequence] was used in the assay because it is sufficient to bind one GT198 dimer. […] BSA alone was included as a control for background. No subtraction of background was needed due to very low background. Duplicated wells were used for each experimental point. Each experiment was repeated three times. The GT198-coated plates were blocked with 5% BSA in a solution containing PBS with 0.1% Triton X-100 (TPBS) for 1 h. The binding was carried out for 4 h to overnight at 4°C using 150 nM Biotin-DNA and serial diluted drugs (0.128, 0.64, 3.2, 16, 80, 400, 2,000, 10,000 nM) or herb extracts (0, 0.0384, 0.192, 0.96, 4.8, 24, 120, 600 ng/μl) in the binding buffer (20 mM TrisHCl, pH 7.5, 50 mM NaCl, 75 mM KCl, 0.5 mM MgCl2, 0.05% Triton X-100, 10% glycerol, 1 mM dithiothreitol). After binding, the plates were washed three times with TPBS solution for total 45 min. The plates were then incubated with streptavidin-conjugated HRP (Roche Molecular Biochemicals, #1089153) at 1 U/ml in TPBS for 1 h at 4°C and further washed three times with TPBS for total 30 min. […] Reading of plates was repeated three times within 45 min, and usually the second reading yielded the most consistent results. The finished plates were stained with Bio-Rad protein assay dye reagent to evaluate the bound GT198 protein on the plates.
(§3) The IC50 values were calculated through Kaleidagraph software (Synergy Software) using nonlinear regression sigmoidal dose-response curve fit. The equation for calculation is y = m1 + (m2 – m1)/[1 + (x /m3)^m4], where m1 is the minimum, m2 is the maximum, m3 is the IC50 value calculated by Kaleidagraph, and m4 is the slope at midpoint of the curve. The analysis of Vmax and Km in competitive binding assays were carried out in double-reciprocal plots, using means of four high-concentration data points, omitting points at lower concentrations with reciprocal values off-scale. […] Double-reciprocal plots reveal competitive binding as constant Vmax with increased Km in the presence of drugs or allosteric binding with reduced Vmax and constant Km in the presence of drugs.

Series [2] addresses T1, GT198. Put plainly: biochemical.
Method: as §1, §2, §3
Series [3] addresses T1, GT198. Set-up: this study used a C-terminal truncated version of GT198 (aa 1–180) to ensure high sensitivity of the assay; His tag (N); made in house; host or cells: E. coli BL21 (DE3) pLysS; method as in doi:10.1101/675579. The note with it: separate study ref 45; cited from earlier work.
Series [4] has as its target T2, GT198 (Hop2), C-terminally truncated (human, UniProt Q9P2W1 1-180, del181-217).
T2 sequence: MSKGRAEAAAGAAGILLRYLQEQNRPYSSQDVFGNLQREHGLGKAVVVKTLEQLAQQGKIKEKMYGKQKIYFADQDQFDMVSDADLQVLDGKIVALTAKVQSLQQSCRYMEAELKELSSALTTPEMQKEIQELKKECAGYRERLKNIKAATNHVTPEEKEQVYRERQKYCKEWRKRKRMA
Put plainly: plate binding assay (immobilized protein, streptavidin-HRP chemiluminescence); EC50; no drug; 20 mM Tris-HCl pH 7.5, 50 mM NaCl, 75 mM KCl, 0.5 mM MgCl2, 0.05% Triton X-100, 10% glycerol, 1 mM DTT; 4 C, 4 h to overnight; 400 ng/well GT198 plus 5 ug BSA. The following applies: protein: recombinant; tags: N-terminal His; chain copies: 2; label: biotin.

Where [5] appears, read: Table 1, drugs not measured with IC50 are shown as active or inactive.
Setting [6] is: IC50, figures 2, 3, 150 nM DNA, sigmoidal curve fit, ND = not detectable.

“And” between values parts separate entries of the source, which are not always exact repeats. Equal entries are not always repeated. Where two headings read alike, the source gives them in different places. *1 amine or outer side, *2 acyl side, *3 side chain or, on linkers, in order; H or OH if unused. Where a SMILES comes first, the peptide text is derived from it. Bridges are numbered along the chain shown (N, C = ends). Roman numbers before positions name the chains, in order. [ ]: non-standard residue; d: D form. Actinocin(9to1) = Cc1c2oc3c(C)ccc(C(=O)[*:1])c3nc-2c(C(=O)[*:2])c(N)c1=O; NMeV = CN[C@H](C(=O)O)C(C)C; Sar = CNCC(=O)O Where only a bound is given, the exact number is not on record here.

Usually IC50 stands for the concentration needed to halve the response being measured. As for `N.N.O=C([O-])C1(C(=O)[O-])CCC1.[Pt+2]` [Carboplatin], the “GT198 inhibition (in words)” value at GT198 [1] is “does not inhibit GT198”. Besides, on GT198 [1] (Supplementary Table 1), the IC50 is greater than 2000 nM and the Efficacy was found to be 0%. Further, the “Efficacy (active or inactive)” value at GT198 [1] (setting [5]) is on record as “Inactive”.

Take `CC(=O)O[C@H]1C(=O)[C@@]2(C)[C@H]([C@H](OC(=O)c3ccccc3)[C@]3(O)C[C@H](OC(=O)[C@H](O)[C@@H](NC(=O)c4ccccc4)c4ccccc4)C(C)=C1C3(C)C)[C@]1(OC(C)=O)CO[C@@H]1C[C@@H]2O` [Paclitaxel]: the IC50 against GT198 [2] was 5 nM. In addition, at GT198 [1], the “GT198 inhibition (in words)” value was “GT198 inhibitors” and the inhibition at 2 µM stood at 32%. The Mode of inhibition entry at GT198 [3] is on record as “allosteric inhibitor or noncompetitive inhibitor”.

In the case of `COc1cccc2c1C(=O)c1c(O)c3c(c(O)c1C2=O)C[C@@](O)(C(=O)CO)C[C@@H]3O[C@H]1C[C@H](N)[C@@H](O)[C@H](C)O1` [Epirubicin], the IC50 on GT198 [1] (IC50) was 750 nM and 749 nM.

On to `CO[C@H]1C(=O)[C@]2(C)[C@@H](OC)C[C@H]3OC[C@@]3(OC(C)=O)[C@H]2[C@H](OC(=O)c2ccccc2)[C@]2(O)C[C@H](OC(=O)[C@H](O)[C@@H](NC(=O)OC(C)(C)C)c3ccccc3)C(C)=C1C2(C)C` [Cabazitaxel], for which the “Efficacy (active or inactive)” value at GT198 [1] (setting [5]) is listed as “Inactive”.

Regarding `O=C1c2c(O)ccc(O)c2C(=O)c2c(NCCNCCO)ccc(NCCNCCO)c21` [Mitoxantrone], the IC50 at GT198 [2] was 187 nM. Besides, at GT198 [1], the “GT198 inhibition (in words)” value is given as “almost complete inhibition” and the inhibition at 2 µM was found to be 90%. At GT198 [1] (setting [6]), this molecule displayed an IC50 of 187 nM. On GT198 [1] (Supplementary Table 1), the Activity result is listed as “+” and the Efficacy stood at 90%.

For `CC[C@@]1(O)C(=O)OCc2c1cc1n(c2=O)Cc2cc3c(CN(C)C)c(O)ccc3nc2-1` [Topotecan], the IC50 against GT198 [2] was greater than 2000 nM. On GT198 [1], the “GT198 inhibition (in words)” value is given as “very poor affinities or fail to inhibit GT198” and the inhibition at 2 µM was 4%. For the same molecule, the Efficacy on GT198 [1] (Supplementary Table 1) was 4%.

With `COc1cc([C@@H]2c3cc4c(cc3[C@@H](O[C@@H]3O[C@@H]5CO[C@@H](c6cccs6)O[C@H]5[C@H](O)[C@H]3O)[C@H]3COC(=O)[C@H]23)OCO4)cc(OC)c1O` [Teniposide], the “GT198 inhibition (in words)” value on GT198 [1] is “GT198 inhibitors”. Further, the “Efficacy (active or inactive)” value on GT198 [1] (setting [5]) is given as “Active”.

As to `NCC(=O)CCC(=O)O` [Aminolevulinic acid], the “GT198 inhibition (in words)” value on GT198 [1] is on record as “positive inhibitors”. The Activity result at GT198 [1] (Supplementary Table 1) is recorded as “+”. In addition, the “Efficacy (active or inactive)” value at GT198 [1] (setting [5]) is given as “Active”.

Take `CC(=O)O[C@@]12CO[C@@H]1C[C@H](O)[C@@]1(C)C(=O)[C@H](O)C3=C(C)[C@@H](OC(=O)[C@H](O)[C@@H](NC(=O)OC(C)(C)C)c4ccccc4)C[C@@](O)([C@@H](OC(=O)c4ccccc4)[C@H]21)C3(C)C` [Docetaxel]: the “GT198 inhibition (in words)” value at GT198 [1] is given as “GT198 inhibitors”. Further, the “Efficacy (active or inactive)” value on GT198 [1] (setting [5]) is recorded as “Active”.

For the molecule `CC[C@]1(O)C[C@H]2CN(CCc3c([nH]c4ccccc34)[C@@](C(=O)OC)(c3cc4c(cc3OC)N(C=O)[C@H]3[C@@](O)(C(=O)OC)[C@H](OC(C)=O)[C@]5(CC)C=CCN6CC[C@]43[C@@H]65)C2)C1` [Vincristine], the “GT198 inhibition (in words)” value on GT198 [1] was “negatives”. For the same molecule, the “Efficacy (active or inactive)” value on GT198 [1] (setting [5]) is on record as “Inactive”.

Molecule `CC[C@@]1(O)C(=O)OCc2c1cc1n(c2=O)Cc2cc3ccccc3nc2-1` [Camptothecin] yielded an IC50 against GT198 [2] of 2060 nM. Also, at GT198 [1], the “GT198 inhibition (in words)” value is recorded as “very poor affinities or fail to inhibit GT198” and the inhibition at 2 µM amounted to 30%.

As to `COc1cccc2c1C(=O)c1c(O)c3c(c(O)c1C2=O)C[C@@](O)(C(C)=O)C[C@@H]3O[C@H]1C[C@H](N)[C@H](O)[C@H](C)O1` [Daunorubicin], the IC50 worked out at 149 nM against GT198 [2] and 150 nM at GT198 [1] (setting [6]). Further, the inhibition at 2 µM on GT198 [1] amounted to 48%.

As for `CN(Cc1cnc2nc(N)nc(N)c2n1)c1ccc(C(=O)N[C@@H](CCC(=O)O)C(=O)O)cc1` [Methotrexate], the “GT198 inhibition (in words)” value at GT198 [1] is given as “negatives”.

On GT198 [2], `COc1cc([C@@H]2c3cc4c(cc3[C@@H](O[C@@H]3O[C@@H]5CO[C@@H](C)O[C@H]5[C@H](O)[C@H]3O)[C@H]3COC(=O)[C@H]23)OCO4)cc(OC)c1O` [Etoposide] displayed an IC50 of 24 nM. Further, on GT198 [1], the “GT198 inhibition (in words)” value is “GT198 inhibitors” and the inhibition at 2 µM stood at 42%. At GT198 [1] (setting [6]), this molecule had an IC50 of 24.2 nM.

The molecule `CCc1c2c(nc3ccc(OC(=O)N4CCC(N5CCCCC5)CC4)cc13)-c1cc3c(c(=O)n1C2)COC(=O)[C@]3(O)CC` [Irinotecan] came in with an IC50 at GT198 [2] greater than 2000 nM. On GT198 [1], the “GT198 inhibition (in words)” value is “very poor affinities or fail to inhibit GT198” and the inhibition at 2 µM was determined as 10%.

`CCN(CC)CCNC(=O)c1c(C)[nH]c(/C=C2\C(=O)Nc3ccc(F)cc32)c1C` [Sunitinib]: the “GT198 inhibition (in words)” value on GT198 [1] is listed as “positive inhibitors”. The Activity result on GT198 [1] (Supplementary Table 1) was “+”. Moreover, on GT198 [1] (setting [5]), the “Efficacy (active or inactive)” value is “Active”.

As for `Cc1c2oc3c(C)ccc(C(=O)N[C@@H]4C(=O)N[C@H](C(C)C)C(=O)N5CCC[C@H]5C(=O)N(C)CC(=O)N(C)[C@@H](C(C)C)C(=O)O[C@@H]4C)c3nc-2c(C(=O)N[C@@H]2C(=O)N[C@H](C(C)C)C(=O)N3CCC[C@H]3C(=O)N(C)CC(=O)N(C)[C@@H](C(C)C)C(=O)O[C@@H]2C)c(N)c1=O` [Dactinomycin] (I: T[dV]P[Sar][NMeV] / II: T[dV]P[Sar][NMeV]; ester I:1-I:C, II:1-II:C; linker I:N-II:N via Actinocin(9to1)), on GT198 [1], the “Efficacy (active or inactive)” value was “Active” and the “GT198 inhibition (in words)” value is listed as “positive inhibitors”.

As to `CCCCC(=O)OCC(=O)[C@]1(O)Cc2c(O)c3c(c(O)c2[C@@H](O[C@H]2C[C@H](NC(=O)C(F)(F)F)[C@H](O)[C@H](C)O2)C1)C(=O)c1c(OC)cccc1C3=O` [Valrubicin], the IC50 against GT198 [2] and at GT198 [1] (setting [6]) was 973 nM each time. The inhibition at 2 µM on GT198 [1] was 26%.

On to `CC(=O)[C@]1(O)Cc2c(O)c3c(c(O)c2[C@@H](O[C@H]2C[C@H](N)[C@H](O)[C@H](C)O2)C1)C(=O)c1ccccc1C3=O` [Idarubicin], for which the IC50 at GT198 [2] and at GT198 [1] (setting [6]) was 362 nM each time. The inhibition at 2 µM on GT198 [1] came out at 56%.

For `N.N.[Cl][Pt][Cl]` [Cisplatin], at GT198 [1] (setting [5]), the “Efficacy (active or inactive)” value is recorded as “Inactive”.

For the molecule `CO[C@H]1C[C@@H]2CC[C@@H](C)[C@@](O)(O2)C(=O)C(=O)N2CCCC[C@H]2C(=O)O[C@H]([C@H](C)C[C@@H]2CC[C@@H](O)[C@H](OC)C2)CC(=O)[C@H](C)/C=C(\C)[C@@H](O)[C@@H](OC)C(=O)[C@H](C)C[C@H](C)/C=C/C=C/C=C/1C` [Sirolimus], the “GT198 inhibition (in words)” value on GT198 [1] was “positive inhibitors”. Moreover, the “Efficacy (active or inactive)” value on GT198 [1] (setting [5]) is “Active”.

For `CC1=C(O)C(=O)C=C2C1=CC=C1[C@@]2(C)CC[C@@]2(C)[C@@H]3C[C@](C)(C(=O)O)CC[C@]3(C)CC[C@]12C` [Celastrol], on GT198 [1], the “GT198 inhibition (in words)” value is “positive” and the inhibition at 2 µM was determined as 30%. Further, the half-maximal inhibitory concentration (IC50) on GT198 [1] (IC50) was 350 nM.

With `O=c1[nH]c(=O)n([C@H]2C[C@H](O)[C@@H](CO)O2)cc1C(F)(F)F` [Trifluridine], at GT198 [1], the “GT198 inhibition (in words)” value is listed as “positive inhibitors”. In addition, at GT198 [1] (Supplementary Table 1), the Activity entry is recorded as “+”. Also, the “Efficacy (active or inactive)” value on GT198 [1] (setting [5]) is “Active”.

`CC(C)C[C@H](NC(=O)[C@H](CCc1ccccc1)NC(=O)CN1CCOCC1)C(=O)N[C@@H](Cc1ccccc1)C(=O)N[C@@H](CC(C)C)C(=O)[C@@]1(C)CO1` [Carfilzomib]: the “GT198 inhibition (in words)” value at GT198 [1] was “positive inhibitors”. Besides, the “Efficacy (active or inactive)” value on GT198 [1] (setting [5]) is listed as “Active”.

Turning to CCTGGGGTTGCTGAGGTCCTGGCAG (ssDNA, biotin before the first printed base (5')) [biotin 25-mer ssDNA], in series [4], the “apparent K (half saturation)” value was determined as 43 nM.

Values taken from publication PMC8409151, “GT198 Is a Target of Oncology Drugs and Anticancer Herbs” (Frontiers in Oral Health, 2021).
